Data on nine compounds can be found in patent US20260365641A1, “Aromatic Acetylene Derivative, Preparation Method Therefor, And Use Thereof” (Zhejiang Hisun Pharmaceutical Co., Ltd., priority 2022, published 2026).

pIC50: −log10 of the molar value. ≈ marks a conversion by molar mass, not a printed value.

The target in test [1] is T1, recombinant Pseudomonas aeruginosa LpxC (Pseudomonas aeruginosa, UniProt P47205).
T1 construct: purchased Signalway Antibody AP74647-2
T1 sequence (P47205 1-303): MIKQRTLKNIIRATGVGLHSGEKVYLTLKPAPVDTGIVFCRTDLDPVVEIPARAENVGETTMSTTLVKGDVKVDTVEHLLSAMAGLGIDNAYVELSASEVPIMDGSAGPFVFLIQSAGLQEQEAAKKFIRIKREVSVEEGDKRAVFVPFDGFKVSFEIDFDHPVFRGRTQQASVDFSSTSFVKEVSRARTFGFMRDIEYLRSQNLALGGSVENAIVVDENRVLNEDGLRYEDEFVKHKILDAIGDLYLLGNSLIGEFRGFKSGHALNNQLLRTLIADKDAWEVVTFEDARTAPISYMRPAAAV
Description: Inhibition of enzymatic activity of recombinant Pseudomonas aeruginosa LpxC in vitro. Type of test: biochemical. The conditions noted are these: 5 nM LpxC; substrate UDP-3-O—(R-3-hydroxydecanoyl)-GlcNAc; 25 °C, 120 minutes; fluorescamine readout. The method, then: The following method was used to determine degrees of inhibition of the compounds of the present invention on the enzymatic activity of recombinant Pseudomonas aeruginosa LpxC in vitro.
The test process was briefly described as follows: the tested compound was first dissolved in DMSO to prepare a 10 mM storage solution. The reaction was carried out in a 96-well microplate. Firstly, 20 μL of recombinant Pseudomonas aeruginosa LpxC (purchased from Signalway Antibody, article number AP74647-2) was added into the wells, and the final concentrations were 5 nM respectively. 5 μL of the compound to be tested was added, diluted in 4-fold, with 8 concentration points, and the concentration range was 0.61-10000 nM. 5 μL of LpxC substrate UDP-3-O—(R-3-hydroxydecanoyl)-GlcNAc (purchased from Biosynth Carbosynth, article number mu75071) was added, wherein a final concentration of the substrate was […], and the substrate was incubated at 25 °C for 120 minutes. Subsequently, 20 μL of 2.0 mg/mL fluorescamine (purchased from sigma aldrich, article number F9015, wherein a solvent was dimethylformamide/acetonitrile (1:1)) was added to the reaction system, mixed evenly and reacted for 10 minutes. Finally, 50 μL of 200 mM sodium phosphate buffer solution (pH 8.0) was added to stop the reaction, and a microplate reader (BMG) was used for reading. An excitation wavelength and an emission wavelength were 390 nm and 495 nm respectively. Compared with the fluorescence intensity ratio of a control group (0.1% DMSO), the percentage inhibition rates of the compounds at each concentration were calculated, and the IC50 values of the compounds were obtained by performing nonlinear regression analysis with logarithmic value of the compound concentration-inhibition rate by GraphPad Prism 5 software, which can be seen in Table 1.

In test [2] the test system is E. coli ATCC 25922. The test is described as follows: Antibacterial activity, minimum inhibitory concentration (MIC) in vitro, broth dilution. The test is classed as cell-based. The conditions noted are these: Escherichia coli, ATCC25922, 5×10^5 cfu/mL, 35 °C, 18-24 hours. How it is done:
(§1) The minimum inhibitory concentration (MIC) in vitro was determined according to CLSI's guidelines, and a minimal broth dilution method was used.
(§2) The test process was briefly described as follows: the tested compound was dissolved in DMSO to prepare a storage solution of […], and then prepared into 11 two-fold-diluted 100× high-concentration working liquids (a final concentration of the system was 64 μg/mL to 0.06 μg/mL) by DMSO. Stains (K. pneumoniae ATCC13883, K. pneumoniae ATCC51504 and E. coli ATCC 25922) frozen at −80 °C with glycerin were inoculated to a solid agar culture medium, placed into an incubator for culturing for 18-24 hours at 35 °C to finish the preparation work of the strains. A proper amount of solid plate culture was collected, re-suspended in normal saline, and uniformly mixed. The turbidity of the bacterial suspension was adjusted to a proper turbidity by a turbidity meter, containing about 1×10^8 cfu/mL of bacteria. Then, the turbidity-regulated bacterial suspension was diluted with a test culture medium (type: CAMHIIB, purchased from BD company) to a bacterial concentration of 5×10^5 cfu/mL, thus finishing the preparation of an inoculation solution. 198 μL of the inoculation solution was inoculated into a 96-well plate, and added with 2 μL 100× high concentration working liquid of the compound, then the 96-well plate was placed at 35 °C for culturing for 18-24 hours.

In test [3] the test system is K. pneumoniae ATCC13883. The test is described as above. The conditions noted are these: Klebsiella pneumoniae, 5×10^5 cfu/mL, 35 °C, 18-24 hours. Type of test: cell-based. How it is done: as §1, §2
Test [4] has as its system K. pneumoniae ATCC51504. The test is described as above. The conditions noted are these: Klebsiella pneumoniae, 5×10^5 cfu/mL, 35 °C, 18-24 hours. Type of test: cell-based. The method, then: as §1, §2

As to `C[C@H](O)c1nccn1Cc1cc(-c2ccc(C#CC3CC4(C3)CN(C3CC(C#N)C3)C4)cc2)on1` (stereo partly drawn) [Example 49, (S)-3-(6-((4-(3-((2-(1-hydroxyethyl)-1H-imidazol-1-yl)methyl)isoxazol-5-yl)phenyl)ethynyl)-2-azaspiro[3.3]heptan-2-yl)cyclobutane-1-carbonitrile], the pIC50 in test [1] is 7.65. Moreover, the minimum inhibitory concentration (MIC) in test [2] was found to be 1 µg/mL (≈ 2.14 µM); in test [3] it was 2 µg/mL (≈ 4.28 µM).
In the same order, the values of `C[C@H](O)c1nccn1Cc1cc(-c2ccc(C#CC3CC4(CCN(C=O)C4)C3)cc2)on1` (stereo partly drawn) [Example 23, (S)-2-((4-(3-((2-(1-hydroxyethyl)-1H-imidazol-1-yl)methyl)isoxazol-5-yl)phenyl)ethynyl)-6-azaspiro[3.4]octane-6-carbaldehyde] are 8.20, 2 µg/mL (≈ 4.65 µM) and 4 µg/mL (≈ 9.29 µM).
As for `C[C@H](O)c1nccn1Cc1cc(-c2ccc(C#CC3CC4(C3)CN(C(=O)c3ncn[nH]3)C4)cc2)on1` [Example 55, (S)-(6-((4-(3-((2-(1-hydroxyethyl)-1H-imidazol-1-yl)methyl)isoxazol-5-yl)phenyl)ethynyl)-2-azaspiro[3.3]heptan-2-yl)(1H-1,2,4-triazol-5-yl)methanone], the pIC50 in test [1] was 7.83. For the same compound, the MIC in test [2] and in test [4] was 2 µg/mL (≈ 4.14 µM) throughout.
In the case of `C[C@H](O)c1nccn1Cc1cc(-c2ccc(C#CC3=CCN(C(=O)c4cnccn4)CC3)cc2)on1` [Example 38, (S)-(4-((4-(3-((2-(1-hydroxyethyl)-1H-imidazol-1-yl)methyl)isoxazol-5-yl)phenyl)ethynyl)-3,6-dihydropyridin-1(2H)-yl)(pyrazin-2-yl)methanone], in test [1], the pIC50 was 7.64. Moreover, the MIC in test [2] was 0.25 µg/mL (≈ 0.52 µM); in test [4], 0.5 µg/mL (≈ 1.04 µM).
For `C[C@H](O)c1nccn1Cc1cc(-c2ccc(C#CC3=CCN(C(=O)CO)CC3)cc2)on1` [Example 63, (S)-2-hydroxy-1-(4-((4-(3-((2-(1-hydroxyethyl)-1H-imidazol-1-yl)methyl)isoxazol-5-yl)phenyl)ethynyl)-3,6-dihydropyridin-1(2H)-yl)ethan-1-one] the same measures were 7.63, 0.5 µg/mL (≈ 1.16 µM) and 0.5 µg/mL (≈ 1.16 µM).
In the same order, the values of `C[C@H](O)c1nccn1Cc1cc(-c2ccc(C#CC3=CCN(C(=O)c4ccccn4)CC3)cc2)on1` [Example 61, (S)-(4-((4-(3-((2-(1-hydroxyethyl)-1H-imidazol-1-yl)methyl)isoxazol-5-yl)phenyl)ethynyl)-3,6-dihydropyridin-1(2H)-yl)(pyridin-2-yl)methanone] are 7.94, 1 µg/mL (≈ 2.09 µM) and 0.5 µg/mL (≈ 1.04 µM).
In the same order, the values of `C[C@H](O)c1nccn1Cc1cc(-c2ccc(C#CC3=CCN(C(=O)C4CCOC4)CC3)cc2)on1` (stereo partly drawn) [Example 41, (4-((4-(3-((2-((S)-1-hydroxyethyl)-1H-imidazol-1-yl)methyl)isoxazol-5-yl)phenyl)ethynyl)-3,6-dihydropyridin-1(2H)-yl)(tetrahydrofuran-3-yl)methanone] are 7.65, 1 µg/mL (≈ 2.12 µM) and 0.25 µg/mL (≈ 0.529 µM).
`C[C@H](O)c1nccn1Cc1cc(-c2ccc(C#CC3=CCN(C(=O)C4CCCCO4)CC3)cc2)on1` (stereo partly drawn) [Example 65, (4-((4-(3-((2-((S)-1-hydroxyethyl)-1H-imidazol-1-yl)methyl)isoxazol-5-yl)phenyl)ethynyl)-3,6-dihydropyridin-1(2H)-yl)(tetrahydro-2H-pyran-2-yl)methanone]: the pIC50 in test [1] was 7.82. Further, the MIC was found to be 2 µg/mL (≈ 4.11 µM) in test [2] and 0.5 µg/mL (≈ 1.03 µM) in test [4].
In the same order, the values of `C[C@H](O)c1nccn1Cc1cc(-c2ccc(C#CC3=CCN(C(N)=O)CC3)cc2)on1` [Example 58, (S)-4-((4-(3-((2-(1-hydroxyethyl)-1H-imidazol-1-yl)methyl)isoxazol-5-yl)phenyl)ethynyl)-3,6-dihydropyridine-1(2H)-carboxamide] are 7.72, 1 µg/mL (≈ 2.4 µM) and 1 µg/mL (≈ 2.4 µM).

The pIC50 is the negative decadic logarithm of the IC50, by convention in mol/L. The term MIC denotes the lowest concentration that inhibits growth of the organism. A high value points to a less susceptible organism.
